Test results as given in PMC3781598 (Pharmaceutical research, 2013).
Values joined by “and” are separate entries in the source; they are usually repeats but may differ in a detail not shown here. Equal values may be shown once. “Also recorded” adds a separate entry of the source. Read-outs that look alike come from different tables or passages of the source.

Key:
[1] = target: T1, human CYP2A6 (Homo sapiens, UniProt P11509); test: Coumarin metabolism assay; settings: for α (mixed inhibition) 2A6: mixed model inhibition
T1 sequence (P11509 with tags, fused parts or gaps limits assumed): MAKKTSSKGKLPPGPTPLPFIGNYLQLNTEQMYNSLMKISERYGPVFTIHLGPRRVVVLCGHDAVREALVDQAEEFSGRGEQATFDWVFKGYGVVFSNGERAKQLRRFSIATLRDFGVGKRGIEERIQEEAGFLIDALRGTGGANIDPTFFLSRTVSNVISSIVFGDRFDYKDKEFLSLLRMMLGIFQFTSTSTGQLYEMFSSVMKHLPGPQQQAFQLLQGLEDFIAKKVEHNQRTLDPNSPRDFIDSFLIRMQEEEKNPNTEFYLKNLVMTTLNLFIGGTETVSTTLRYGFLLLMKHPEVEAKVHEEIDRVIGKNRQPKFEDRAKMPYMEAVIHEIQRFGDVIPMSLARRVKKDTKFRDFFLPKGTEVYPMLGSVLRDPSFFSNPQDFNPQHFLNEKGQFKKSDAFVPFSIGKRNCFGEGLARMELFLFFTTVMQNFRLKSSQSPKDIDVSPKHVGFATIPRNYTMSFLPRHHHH

[2] = test system: CYP2A6 / CYP2A13; test: Coumarin metabolism assay; settings: human
[3] = target: T2, human CYP2A13 (Homo sapiens, UniProt Q16696); test: Coumarin metabolism assay; settings: for α (mixed inhibition) 2A13: mixed model inhibition
T2 sequence (Q16696 with tags, fused parts or gaps limits assumed): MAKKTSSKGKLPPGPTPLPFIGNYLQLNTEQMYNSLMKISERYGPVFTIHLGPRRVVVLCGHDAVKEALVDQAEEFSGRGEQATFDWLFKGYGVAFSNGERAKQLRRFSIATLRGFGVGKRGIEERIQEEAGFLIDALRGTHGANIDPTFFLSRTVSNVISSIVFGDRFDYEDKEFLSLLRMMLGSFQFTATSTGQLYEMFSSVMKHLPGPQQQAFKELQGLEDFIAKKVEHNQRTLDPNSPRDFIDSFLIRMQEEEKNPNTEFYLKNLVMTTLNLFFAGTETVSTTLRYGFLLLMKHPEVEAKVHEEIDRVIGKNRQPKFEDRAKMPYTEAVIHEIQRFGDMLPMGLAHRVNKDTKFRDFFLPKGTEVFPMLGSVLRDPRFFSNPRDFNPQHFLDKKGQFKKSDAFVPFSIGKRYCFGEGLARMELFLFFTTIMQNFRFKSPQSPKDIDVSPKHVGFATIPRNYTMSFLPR

[4] = target: T3, human CYP2A13 (Homo sapiens, UniProt Q16696); test: Spectral ligand binding assay; settings: for Spectral shift type 2A13: UV/Vis difference spectra; for Kd: Kd 2A13, spectral titration, ≥ = minimal Kd value
T3 sequence (Q16696 25-494): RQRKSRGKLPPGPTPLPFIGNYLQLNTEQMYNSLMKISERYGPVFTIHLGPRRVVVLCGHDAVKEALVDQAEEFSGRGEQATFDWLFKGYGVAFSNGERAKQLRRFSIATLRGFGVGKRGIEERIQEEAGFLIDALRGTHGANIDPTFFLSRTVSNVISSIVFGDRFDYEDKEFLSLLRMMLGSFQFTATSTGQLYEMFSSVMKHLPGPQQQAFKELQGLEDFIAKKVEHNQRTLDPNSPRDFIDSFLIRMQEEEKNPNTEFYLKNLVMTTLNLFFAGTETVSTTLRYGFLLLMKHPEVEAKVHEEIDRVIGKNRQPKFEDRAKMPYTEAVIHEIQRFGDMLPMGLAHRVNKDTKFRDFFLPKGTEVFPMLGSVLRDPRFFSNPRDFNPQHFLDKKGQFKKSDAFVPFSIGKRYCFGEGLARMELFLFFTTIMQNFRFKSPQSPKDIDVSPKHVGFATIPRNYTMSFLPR

[5] = target: T1, human CYP2A6; test: Spectral ligand binding assay; settings: for Kd 2A6 / Kd: ≥ = minimal Kd value; for Spectral shift type 2A6: UV/Vis difference spectra
[6] = test system: CYP2A6 / CYP2A13; test: Spectral ligand binding assay; design: species or system human; settings: human
[7] = pH 7.4, probe coumarin (7-hydroxylation), Selectivity Ki (2A6)/ Ki (2A13), ratio of the CYP2A6 value to the CYP2A13 value
[8] = Selectivity Kd (2A6)/ Kd (2A13), ratio of the CYP2A6 value to the CYP2A13 value
[9] = read-out: Ki 2A6, coumarin substrate
[10] = read-out: Ki 2A13, coumarin substrate
[11] = read-out: Kd 2A6, spectral titration

Fc1ccccc1CN1CCOCC1 [Compound 2, 4-(2-fluorobenzyl)morpholine]
Ki [1]: ≥ 1000 µM | selectivity ratio at 10 min [2, 7]: ≥ 2.6 | Ki [3]: 379 µM | Spectral shift type 2A13 [4]: I | Kd 2A6 ([5]; spectral titration): no spectral shift; also recorded: No ^** Spectral Shift

Brc1ccccc1CN1CCOCC1 [Compound 4, 4-(2-bromobenzyl)morpholine]
Ki [1]: ≥ 1000 µM | selectivity ratio at 10 min ([2]; pH 7.4): ≥ 56.8 | Ki [3]: 17.6 ± 3.1 µM | Kd [4]: 6.3 µM | Spectral shift type 2A13 [4]: I | Kd 2A6 ([5]; spectral titration): No ^** Spectral Shift

Cc1ccccc1CN1CCOCC1 [Compound 5, 4-(2-methylbenzyl)morpholine]
Ki [1]: ≥ 1000 µM | selectivity ratio at 10 min [2, 7]: ≥ 14.9 | Ki [3]: 66.9 µM | Kd [4]: 18.5 µM | Spectral shift type 2A13 [4]: I | Kd 2A6 ([5]; spectral titration): No ^** Spectral Shift

CCc1ccccc1CN1CCOCC1 [Compound 6, 4-(2-ethylbenzyl)morpholine]
Ki [1]: 818 µM | Mode of inhibition 2A6 ([1]; coumarin substrate): mixed inhibition | α (mixed inhibition) 2A6 ([1]; coumarin substrate): 13.3 | selectivity ratio at 10 min ([2]; pH 7.4): 48.4 | Ki [3]: 16.9 µM | selectivity ratio [6]: ≥ 128 | Kd [4]: 4.5 µM | Spectral shift type 2A13 [4]: I | Kd ([5]; Kd 2A6, spectral titration): ≥ 575 µM | Spectral shift type 2A6 [5]: I

Clc1cccc(Cl)c1CN1CCOCC1 [Compound 8, 4-(2,6-dichlorobenzyl)morpholine]
Ki [1]: 237 µM | selectivity ratio at 10 min [2, 7]: 13.7 | Ki [3]: 18.1 µM | selectivity ratio [6, 8]: > 400 | Kd [4]: 1.3 µM | Spectral shift type 2A13 [4]: I | Kd ([5]; Kd 2A6, spectral titration): ≥ 522 µM | Spectral shift type 2A6 [5]: I

Clc1cccc(CN2CCOCC2)c1 [Compound 10, 4-(3-chlorobenzyl)morpholine]
Ki [1]: 352 µM | selectivity ratio at 10 min [2, 7]: 1.4 | Ki [3]: 260 µM | selectivity ratio [6, 8]: ≥ 5.8 | Kd [4]: 69.1 ± 30.2 µM | Spectral shift type 2A13 [4]: I | Kd ([5]; Kd 2A6, spectral titration): ≥ 400 µM | Spectral shift type 2A6 [5]: I [drawing 12] II

Clc1ccc(CN2CCOCC2)cc1 [Compound 11, 4-(4-chlorobenzyl)morpholine]
Ki [1]: 448 µM | selectivity ratio at 10 min [2, 7]: 1 | Ki [3]: 458 µM | selectivity ratio [6, 8]: ≥ 1.5 | Kd [4]: 168 µM and 167 µM | Spectral shift type 2A13 [4]: I | Kd ([5]; Kd 2A6, spectral titration): ≥ 245 µM | Spectral shift type 2A6 [5]: I

CC1CN(Cc2cccc(Cl)c2Cl)CC(C)O1 (centres unmarked) [Compound 14, 4-(2,3-dichlorobenzyl)-2,6-dimethylmorpholine]
Ki [1]: ≥ 1000 µM | selectivity ratio at 10 min [2, 7]: ≥ 2.6 | Ki [3]: 646 µM | Mode of inhibition 2A13 ([3]; coumarin substrate): mixed inhibition | α (mixed inhibition) 2A13 ([3]; coumarin substrate): 19.6 | selectivity ratio [6, 8]: ≥ 12.5 | Kd [4]: 37 µM | Spectral shift type 2A13 [4]: I | Kd ([5]; Kd 2A6, spectral titration): ≥ 462 µM | Spectral shift type 2A6 [5]: I

c1ccc2c(CN3CCOCC3)cccc2c1 [Compound 15, 4-(naphthalen-1-ylmethyl)morpholine]
Ki [1]: 500 µM | Mode of inhibition 2A6 ([1]; coumarin substrate): mixed inhibition | α (mixed inhibition) 2A6 ([1]; coumarin substrate): 3.1 | selectivity ratio at 10 min [2, 7]: 2.3 | Ki [3]: 219 ± 18.7 µM | Kd [4]: 41.8 µM and 121 µM | Spectral shift type 2A13 [4]: I | Kd 2A6 ([5]; spectral titration): Weak Spectral Shift

Clc1ccccc1Cn1ccnc1 [Compound 16, 1-(2-chlorobenzyl)-1H-imidazole]
Ki [1]: 2.9 µM | Mode of inhibition 2A6 ([1]; coumarin substrate): purely competitive inhibitors | selectivity ratio at 10 min [2, 7]: 1 | Ki [3]: 2.8 µM | Mode of inhibition 2A13 ([3]; coumarin substrate): mixed inhibition; also recorded: mixed inhibitors | α (mixed inhibition) 2A13 ([3]; coumarin substrate): 3.9 | selectivity ratio [6, 8]: ≥ 1 | Kd [4]: < 0.1 µM | Kd ([5]; Kd 2A6, spectral titration): 0.1 µM

Clc1cccc(Cl)c1Cn1ccnc1 [Compound 17, 1-(2,6-dichlorobenzyl)-1H-imidazole]
Ki [1]: 0.9 µM | Mode of inhibition 2A6 ([1]; coumarin substrate): purely competitive inhibitors | selectivity ratio at 10 min [2, 7]: 0.4 | Ki [3]: 2.1 µM | Mode of inhibition 2A13 ([3]; coumarin substrate): mixed inhibition; also recorded: mixed inhibitors | α (mixed inhibition) 2A13 ([3]; coumarin substrate): 2.0 | selectivity ratio [6, 8]: ≥ 9 | Kd [4]: < 0.1 µM | Kd ([5]; Kd 2A6, spectral titration): 0.9 µM

c1csc(CN2CCOCC2)c1 [Compound 19, 4-(thiophen-2-ylmethyl)morpholine]
Ki [1]: 270 µM | selectivity ratio at 10 min [2, 7]: 2.1 | Ki [3]: 131 µM | selectivity ratio [6, 8]: ≥ 15.1 | Kd [4]: 30.8 µM | Spectral shift type 2A13 [4]: I | Kd ([5]; Kd 2A6, spectral titration): ≥ 464 µM | Spectral shift type 2A6 [5]: I

Clc1ccsc1CN1CCOCC1 [Compound 20, 4-((3-chlorothiophen-2-yl)methyl)morpholine]
Ki [1]: 433 µM | selectivity ratio at 10 min [2, 7]: 7.9 | Ki [3]: 54.7 µM | selectivity ratio [6, 8]: ≥ 22.3 | Kd [4]: 10.7 µM | Spectral shift type 2A13 [4]: I | Kd ([5]; Kd 2A6, spectral titration): ≥ 239 µM | Spectral shift type 2A6 [5]: I

CN1CCN(Cc2ccccc2Cl)CC1 [Compound 21, 1-(2-chlorobenzyl)-4-methylpiperazine]
Ki [1]: ≥ 1000 µM | Ki [3]: ≥ 1000 µM | Kd [4]: 306 µM | Spectral shift type 2A13 [4]: I | Kd 2A6 ([5]; spectral titration): weak or no spectral shifts; also recorded: Weak Spectral Shift

CN1CCN(Cc2c(Cl)cccc2Cl)CC1 [Compound 22, 1-(2,6-dichlorobenzyl)-4-methylpiperazine]
Ki [1]: ≥ 1000 µM | Ki [3]: ≥ 1000 µM | Kd [4]: ≥ 362 µM | Spectral shift type 2A13 [4]: I | Kd 2A6 ([5]; spectral titration): weak or no spectral shifts; also recorded: No Spectral Shift

Clc1ccccc1CCN1CCOCC1 [Compound 24, 4-(2-chlorophenethyl)morpholine]
Ki [1, 9]: ≥ 1000 µM | Ki [3, 10]: 604 µM | Kd [5, 11]: ≥ 604 µM

Benzylmorpholine [Compound 1]
Mode of inhibition 2A6 ([1]; coumarin substrate): mixed inhibition | α (mixed inhibition) 2A6 ([1]; coumarin substrate): 3.4 | Ki [1, 9]: 675 µM | Ki [3, 10]: 477 µM | Spectral shift type 2A6 [5]: I [drawing 2] II | Kd [5, 11]: ≥ 300 µM
